Experimental data taken from US20040038888A1 (priority 2002, published 2004).

What was measured:
[1] = system: mouse adult neural stem cells; test: Intracellular ATP assay, adult mouse NSC, non-adherent culture; assay type: cell-based
Procedure: The anterior lateral wall of the lateral ventricle of 5-6 week old mice was enzymatically dissociated in 0.8 mg/ml hyaluronidase and 0.5 mg/ml trypsin in DMEM containing 4.5 mg/ml glucose and 80 units/ml DNase at 37° C. for 20 min. The cells were gently triturated and mixed with three volumes of Neurosphere medium (DMEM/F12, B27 supplement, 12.5 mM HEPES pH7.4) containing 20 ng/ml EGF (unless otherwise stated), 100 units/ml penicillin and 100μg/ml streptomycin. After passing through a 70 μm strainer, the cells were pelleted at 160×g for 5 min. The supernatant was subsequently removed and the cells resuspended in Neurosphere medium supplemented as above, plated out in culture dishes and incubated at 37° C. Neurospheres were ready to be split approximately 7 days after plating.
To split neurosphere cultures, neurospheres were collected by centrifugation at 160×g for 5 min. The neurospheres were resuspended in 0.5 ml Trypsin/EDTA in HBSS (1×), incubated at 37° C. for 2 min and triturated gently to aid dissociation. Following a further 3 min incubation at 37° C. and trituration, 3 volumes of ice cold NSPH-media-EGF were added to stop further trypsin activity. The cells were pelleted at 220×g for 4 min, resuspended in fresh Neurosphere medium supplemented with 20 ng/ml EGF and 1 nM bFGF plated out and incubated at 37° C.
Mouse neurospheres, cultured as described above, from passage 2, were seeded in DMEM/F12 supplemented with B27 into a 96-well plate as single cells (10000 cells/well) to the substances to be measured were added at the concentrations indicated. After 3 days incubation, intracellular ATP was measured using the ATP-SL kit from BioThema, Sweden, according to the manufacturer's instructions. PACAP and VIP were purchased from Bachem. Maxadilan was a kind gift from Richard G Titus, Dept Microbiology, Immunology and Pathology, College of Veterinary Medicine and Biological Sciences, Colorado State University.
In experiments where signalling pathways were examined, cells were seeded as single cells as mentioned above. PACAP, 100 nM, was co incubated with 10 uM PKA inhibitor H89 (Alexis-Biochemicals) or 1 uM PLC inhibitor U73122 (Alexis-Biochemicals) or 1 uM of the PKC inhibitor Gö6976 (Sigma-Aldrich). Cells were incubated for 4 days before measurements of ATP.
In the experiment analysing the combinatory effect of PACAP and EGF, PACAP at 100 nM was co-incubated with 3 nM EGF for 3 days.

[2] = system: mouse adult neural stem cells; test: Thymidine incorporation, adult mouse NSC, non-adherent culture; assay type: cell-based; conditions: non-adherent conditions, 3 days, all PACAP treatments relative to controls
Procedure: To determine thymidine incorporation into DNA, neurospheres were split and seeded in Neurosphere medium as single cells in 96-well plates, 10,000 cells/well. Substances to be measured were added in quadruplicates and cells were incubated at 37° C. for 3 days. 3H-thymidine, 10 uCi/ml, was present the last 24 hours. Cells were harvested on to a filter paper and radioactivity was measured. 3H-thymidine (6,7 Ci/mmol) was from PerkinElmer.

[3] = system: subventricular zone NSC; test: PACAP/BrdU infusion, BrdU labelling of the lateral ventricle wall; assay type: in vivo, mouse; conditions: 600 nM pump concentration, 0.5 μl/hr into the lateral ventricle, 3.5 days, relative to vehicle
Procedure: 10 week old male mice (C57B1/2), maintained on a 12 hr light/dark cycle with food and water ad libidum, were infused in the right lateral ventricle with PACAP38 (Bachem), using a Alzet pump (1007D), for 3,5 days or 7 days at a daily dose of 31 ng/day (600 nM PACAP pump concentration infused at a rate of 0.5 μl/hr). Bromodeoxyuridine (BrdU) (50 mg/ml) was also included in the infusion vehicle (0.9% saline containing 1 mg/ml mouse serum albumin (Sigma)) to enable measurement of proliferation by quantitation of BrdU incorporation in the DNA. The group of infused with either PACAP/BrdU or vehicle/BrdU for 3,5 days and sacrificed at this time point. […]
Brains were cut into 14-μm coronal sections using a cryostat-microtome. […] After 1 hour of washing, the BrdU-antibody complex was detected using 0.05% diaminobenzidine with 0.01% H2O2, and counterstained with Hematoxylin. […]
For all BrdU labelling experiments, three to six sections per animal were analysed. […] The number of BrdU-labelled cells per area of dentate granule cell layer was counted manually. […] BrdU-positive cells were counted along 2×250 micrometer strips of the lateral ventricle wall (see FIG. 18). Area measurements of both the dentate granule cell layer and the “counted” region of the lateral ventricle wall (including the ependymal cell layer and subventricular zone) were made from each slide used for the cell counts. […]

Substance: pituitary adenylate cyclase-activating polypeptide [PACAP]
- intracellular ATP levels ([1]; PACAP 100 nM, 4 days, relative to control): significantly increases intracellular ATP levels
- intracellular ATP levels, and hence NSC number ([1]; PACAP 100 nM, EGF 3 nM, alone or combined, 3 days): increased intracellular ATP levels
- intracellular ATP levels, and hence cell number ([1]; varying concentrations, non-adherent conditions, 3 days, relative to control, dose-dependent): statistically significant increase in intracellular ATP levels
- incorporation of tritiated thymidine [2]: Greater incorporation of tritiated thymidine
- proliferation in the subventricular zone of the lateral ventricle wall (BrdU-positive cells) [3]: significant increase in proliferation
